Measurements reported in patent US12595269B2, “Morpholine-like monoamine releasers” (Solvonis Therapeutics Ireland Holdings Limited, priority 2022, dated 2026).

Legend:
[1] = In vitro intrinsic clearance in rat liver microsomes; assay type: in vitro ADME; conditions: pH 7.4, read-out: Intrinsic clearance (μL/min/mg protein) rat
Protocol: (§1) Methods and Procedure: The general procedure involves incubating test compounds with liver microsomes and subsequently detecting the compounds to determine intrinsic clearance. Clearance was estimated from the rate of depletion k (min−1), the volume of the incubation V (mL), and the amount of microsomal proteins in the incubation M (mg). Intrinsic clearance is defined by the following equation: Clint k*V/M.
(§2) Values for CLint are expressed as μL/min/mg protein. Verapamil and dextromethorphan were used as positive controls for CYP3A4 and CYP2D6 isoforms, respectively, to confirm metabolic activity.
(§3) Positive control and compounds for testing were dissolved in an appropriate solvent to obtain a 10 mM stock solution, which was diluted to achieve a final working solution, as detailed in the above table. Stock solutions were usually prepared at 10 mM DMSO, whereas working solutions were made by adding 5 μL 10 mM DMSO+995 μL MeOH. However, this concentration can be varied, e.g., when the test item is not soluble in the selected solvent.
(§4) Prior to experimentation, frozen liver microsomes were thawed in a water bath at 37° C. and kept on ice until use. The microsomes were then diluted with 50 mM potassium phosphate buffer pH 7.4 to a protein concentration of 0.56 mg/mL. To prepare test and control items in final incubation conditions, 5 μL of test compound and positive control working solutions were added to 445 μL of microsomes incubation mixture at 0.56 mg/mL and 50 μL of regenerating system.
(§5) As it relates to the automated incubation procedure for microsomes incubation, the following procedure was followed: • 1. 150 μL of quenching solution (ACN containing an appropriate Internal Standard, i.e. Rolipram and Diclofenac for positive and negative ion mode, respectively) was manually dispensed or dispensed by using the Hamilton system in each well of 96 deep well 1 mL plates. • 2. 800-1000 μL-aliquots of NADPH regenerating system were pre-warmed at 37° C. for 5 minutes. • 3. 5 μL of 50 μM test items and control were added to 445 μL of the 0.56 mg/mL microsomes solution, and the incubation mixture was pre-warmed in a 96 deep well 2 mL plate (incubation plate) at 37° C. for 5 minutes. • 4. […] Metabolic stability was calculated from the ratio of peak area of the remaining test or control item with internal standard versus time. • 9. […] The integrated peak areas of the test and control items at the selected time points were divided by the respective peak areas of the IS, and the percent of parent remaining was calculated by normalizing the peak area ratio of parent to IS at 0 min. Observed rate constant (kobs) for parent degradation was calculated by determining the slope of the line of the graph of the natural log of percentage parent remaining versus time of incubation. […]

[2] = In vitro intrinsic clearance in human liver microsomes; assay type: in vitro ADME; conditions: pH 7.4, read-out: Intrinsic clearance (μL/min/mg protein) human
Protocol: as §1, §2, §3, §4, §5

Work on `Clc1ccc([C@]23CN[C@H](CO2)C3)cc1Cl` (single isomer, unassigned) [516A] yielded a microsomal CLint at 0.5 µM [1] of 167 µL/min/mg and a microsomal CLint at 0.5 µM [2] of 31 µL/min/mg.

Work on `Clc1ccc([C@@]23CN[C@@H](CO2)C3)cc1Cl` (single isomer, unassigned) [518A] yielded a microsomal CLint at 0.5 µM [1] of 268 µL/min/mg and a microsomal CLint at 0.5 µM [2] of 40 µL/min/mg.

For `Clc1ccc(C23CNC(CO2)C3)cc1Cl` (centres unmarked) [522A, 1-(3,4-dichlorophenyl)-2-oxa-5-azabicyclo[2.2.1]heptane], the microsomal CLint at 0.5 µM [1] was 83 µL/min/mg and the microsomal CLint at 0.5 µM [2] was 10 µL/min/mg.

With `CNC(C)Cc1ccc2c(c1)OCO2` (centres unmarked) [MDMA, reference compound] the microsomal CLint at 0.5 µM [1] was 171 µL/min/mg and the microsomal CLint at 0.5 µM [2] was 30 µL/min/mg.
